Results: patent publication US20240270811A1, “Glycosylated Neuropeptide Derivative, Pharmaceutical Composition, Intranasal/Nasal Drop Formulation, and Use of Pharmaceutical Composition” (Tokyo University of Science Foundation, priority 2021, published 2024)
Where no end group is shown, it is not given here. The star is where a group is joined. X1 = CC(=O)N[C@@H]1[C@@H](O)[C@H](O[C@@H]2O[C@H](CO)[C@@H](O[C@@H]3O[C@H](CO[C@H]4O[C@H](CO)[C@@H](O)[C@H](O)[C@@H]4O[C@@H]4O[C@H](CO)[C@@H](O[C@@H]5O[C@H](CO[C@]6(C(=O)O)C[C@H](O)[C@@H](NC(C)=O)[C@H]([C@H](O)[C@H](O)CO)O6)[C@H](O)[C@H](O)[C@H]5O)[C@H](O)[C@H]4NC(C)=O)[C@@H](O)[C@H](O[C@H]4O[C@H](CO)[C@@H](O)[C@H](O)[C@@H]4O[C@@H]4O[C@H](CO)[C@@H](O[C@@H]5O[C@H](CO[C@]6(C(=O)O)C[C@H](O)[C@@H](NC(C)=O)[C@H]([C@H](O)[C@H](O)CO)O6)[C@H](O)[C@H](O)[C@H]5O)[C@H](O)[C@H]4NC(C)=O)[C@@H]3O)[C@H](O)[C@H]2NC(C)=O)[C@@H](CO)O[C@H]1NC(=O)C*

Columns and labels:
[1] = Solubility of GLP-2/GLP-1 derivatives with respect to aqueous medium (PBS); assay type: physicochemical; details: for solubility with respect to PBS (FIG. 1): freeze-dried 5-200 nmol/tube, PBS added, ultrasonic treatment, overnight, supernatant OD 280 nm
Protocol: Samples were prepared by dispensing a Milli-Q aqueous solution of PAS-CPP-GLP-2 (no sugar), PAS-CPP-GLP-2 (5-sugar) or PAS-CPP-GLP-2 (11-sugar) to a microtube by an amount of 5 nmol/tube, 30 nmol/tube, 60 nmol/tube, 120 nmol/tube or 200 nmol/tube, and freeze-drying the same. The freeze-dried samples were added with […] of PBS (Dulbecco's Phosphate Buffered Saline; Sigma-Aldrich, herein after the same), subjected to ultrasonic treatment, and allowed to stand overnight. Thereafter, the concentration of the peptide was measured. Specifically, a supernatant obtained by centrifuging the sample suspension was subjected to the measurement of OD (280 nm) with a spectrometer (NanoDrop™ 2000c spectrometer; Thermo Fisher Scientific K.K.)
Administration solutions were prepared by mixing a PAS-CPP-GLP-2 derivative (no sugar) or a PAS-CPP-GLP-2 derivative (11-sugar) with PBS. […] The concentration of each GLP-2 derivative was adjusted to 0.6 nmol/4 μL.
(§1) The concentration of a PAS-CPP-GLP-2 derivative (no sugar) or a PAS-CPP-GLP-2 derivative (11-sugar) was adjusted to 3.0 nmol/4 μL.

[2] = Amount of migration to brain quantified by GLP-2 ELISA; assay type: in vivo; details: in vivo, inhaled or intranasal, 6.0 nmol/mouse intranasal, brain isolated 20 minutes after administration, read-out: amount of GLP-2 derivative in brain
Protocol: Mice were intranasally administered with 16% DMSO or GLP-2 derivatives (6.0 nmol/mouse). The brain was isolated 20 minutes after the administration, and homogenized with BioMasher II (Nippi, Tokyo, Japan). A sample was prepared by performing centrifugal separation by 1000×g for 15 minutes and collecting a supernatant. The amount of a GLP-2 derivative in the sample was quantified using a GLP-2 ELISA kit. Specifically, a cleaning process including filling each well of a measurement plate with a cleaning fluid (350 μL) and suctioning the cleaning fluid with a pipette was performed three times. Subsequently, a labeled antigen solution (40 μL), a sample (25 μL) and a specific antibody solution (50 μL) were added in this order to the well and mixed. The measurement plate was tightly sealed and allowed to stand for 18 hours at 4° C. The cleaning process was performed three times, and a SA-HRP solution (100 μL) was added and allowed to permeate for 1.5 hours at room temperature (60 rpm). […] Finally, an enzyme reaction stop solution (100 μL) was added and an absorbance at 490 nm was measured with ARVO (PerkinElmer Japan Co., Ltd., Kanagawa, Japan) to calculate the concentration of a GLP-2 derivative.

[3] = Migration to central nervous system, optical imaging of brain sagittal sections (ICG-labelled derivatives); assay type: in vivo, mouse; details: for fluorescence in brain section: 3.0 nmol/4 μL intranasal
Protocol: Administration solutions were prepared by completely dissolving a PAS-CPP-GLP-2 derivative (no sugar) labelled with ICG or a PAS-CPP-GLP-2 derivative (11-sugar) labelled with ICG in DMSO, and adjusting the final concentration of DMSO to 16% by adding PBS.
as §1
After anesthetizing mice with isoflurane using an all-in-one small animal anesthetizer, the administration solutions or 16% DMSO as a control was intranasally administered to the mice by the amount of 2 μL per nose cavity, 4 μL in total.
In order to observe the migration to the brain over time, the brain was isolated 5 minutes, 10 minutes, 20 minutes, 60 minutes and 90 minutes after the intranasal administration, respectively, and subjected to infiltration fixation with 4% paraformaldehyde (4% PFA) solution overnight. Subsequently, a sagittal section with a thickness of 2 mm at the left and the right from the center of the brain was prepared using a brain matrix (RBM-2000S, ASI). The section was placed in a dish and analyzed with an optical imaging apparatus (Clairvivo OPT plus, Shimadzu Corporation) at an excitation wavelength of 785 nm, fluorescence wavelength of 849 nm, and an exposure time: 6 seconds.

[4] = Brain distribution by immunostaining and fluorescence quantification (Example 7); assay type: in vivo; details: 3.0 nmol/mouse intranasal
Protocol: Mice were intranasally administered with 16% DMSO or GLP-2 derivatives (3.0 nmol/mouse), and the brain was isolated 5 minutes, 10 minutes, 20 minutes and 60 minutes after the administration.
The brain isolated 5 minutes or 10 minutes after the intranasal administration was subjected to infiltration fixation with 4% PFA at 4° C. overnight without performing perfusion fixation. The isolation of the brain 20 minutes or 60 minutes after the intranasal administration was performed by the following process.
The mouse was fixed in a supine position under anesthesia with isoflurane, and the chest was incised. PBS and 4% PFA were perfused, in this order, from the left chamber of the heart throughout the whole body for fixing the tissue. The isolated brain was preserved in a 4% PFA solution. On the day following the isolation, the brain samples were substituted with 20% sucrose overnight (4° C.), and further with 30% sucrose overnight (4° C.). Thereafter, a frozen section with a thickness of 30 μm was prepared using a cryostat (CM3050S; Leica Microsystems).
Sections of the olfactory bulb (OB) including olfactory nerves, pons/principal sensory nucleus of trigeminal nerve (Pr5), hippocampus (HIP) and dorsomedial nucleus of the hypothalamus (DMH) were prepared by referring to Nissil staining images and the brain map (Paxinos and Franklin, 2003).
The frozen brain section was mounted on a slide glass, and a circle was drawn around the section with a liquid blocker. A blocking buffer was added inside the circle and the section was subjected to blocking for 30 minutes at room temperature. Thereafter, the section was added with a first antibody solution including a GLP-2 polyclonal antibody, diluted 200 times with a blocking solution, and subjected to incubation for 1 hour at room temperature. After washing three times with 1×PBS, the section was added with a second antibody solution including Alexa Fluor (trademark) 568 Goat Anti-Mouse IgG H&L, diluted 500 times with a BSA/PBS solution, and subjected to incubation for 1 hour at room temperature. After washing three times with 1×PBS, the section was mounted with ProLong (trademark) Diamond Antifade Mountant. After confirming the solidification of the mountant, the section was subjected to fluorescent observation and imaging with a confocal laser microscope (TCS SP8; Leica) and a software (Leica Application Suite X Software; Leica). Further, the fluorescent intensity in the image was calculated using the software and an average florescent intensity of each group was quantified.
The mice were intranasally administered with a PAS-CPP-GLP-2 (no sugar) or a PAS-CPP-GLP-2 (11-sugar).

FFLIPKGRRRRRRRRGGHADGSFSDEMNTILDNLAARDFINWLIQTKITDC(X1)-OH [PAS-CPP-GLP-2 (11-sugar)]
solubility in PBS ([1]; PBS): completely soluble in PBS
solubility with respect to PBS (FIG. 1) ([1]; listed as GLP-2 derivatives (11-sugar)): linearly improved
solubility with respect to PBS (FIG. 1) ([1]; listed as glycosylated GLP-2 derivative (11-sugar)): improved solubility
state of derivative in PBS administration solution ([1]; mixed with PBS, 0.6 nmol/4 μL): completely dissolved
tissue level at time molar at 20 min [2]: 0.0106 ± 0.000998 nmol/g
fluorescence in brain section ([3]; 5 minutes after administration): fluorescence was observed
fluorescence in brain section ([3]; 10 minutes after administration): fluorescence was observed intensively
fluorescence in brain section ([3]; 20 minutes after administration): fluorescence was observed
fluorescence in brain section ([3]; 60 minutes after administration): a relatively strong degree of fluorescence was observed
fluorescence in brain section ([3]; 90 minutes after administration): fluorescence was not observed
retention in brain compared with PAS-CPP-GLP-2 derivative (no sugar) ([3]; intranasal, 5-90 minutes): remains in the brain for a longer time period
fluorescence at OB and Pr5 ([4]; 5 minutes): a significant degree of fluorescence was observed
fluorescence at HIP and DMH ([4]; 20 minutes): intense fluorescence was observed
fluorescence intensity at OB or Pr5 compared with 5 minutes ([4]; 20 minutes): weaker than the fluorescence observed 5 minutes after the administration
fluorescence at HIP and DMH ([4]; 60 minutes): a significant degree of fluorescence was observed
fluorescence at OB and Pr5 ([4]; 60 minutes): a significant degree of fluorescence was observed
fluorescence intensity at OB and Pr5 compared with 5 minutes ([4]; 60 minutes): weaker than the fluorescence observed 5 minutes after the administration
